Patent publication US20120148685A1, “METHODS AND COMPOSITIONS FOR TREATING INSULIN RESISTANCE, DIABETES MELLITUS TYPE 2, METABOLIC SYNDROME AND RELATED DISORDERS” (Engergy4Life AG, priority 2009, published 2012)
Marks after values point to notes of the source that are not given here.

Tests used:
[1] = Feed intake, body weight development and feed conversion ratio of Zucker rats fed supplemented diets; assay type: in vivo; details: obese (fa/fa) Zucker rats, supplemented diet fed 4 wk, means ± SD (n = 12)
Text: Zucker rats are an established model of human early-onset, hyperplastic-hypertrophic obesity and insulin resistance as well as human non-insulin dependent diabetes mellitus.
(§1) A total of 60 male, 8-10 week old, obese (fa/fa) Zucker rats (Crl:ZUC-Leprfa; Charles River, France) with an initial body weight of 358±24 (mean±SD) g were randomly assigned to five groups of twelve rats each. In addition, 12 male, 8-10 week old, heterozygous lean (fa/+) Zucker rats with an initial body weight of 271±10 g were used as a lean control group. All rats were kept individually in Macrolon cages in a room maintained at 22±1° C. and 50-60% relative humidity with lighting from 06.00 to 18.00 hours. All experimental procedures described followed established guidelines for the care and handling of laboratory animals and were approved by the local Animal Care and Use Committee.
(§2) The rats were fed semi-purified diets which were composed according to the recommendations of the American Institute of Nutrition (AIN)-93G. Five different diets were used differing in their supplementation. […] Diets were prepared by mixing the dry components and subsequent pelleting with a standard pelleting device (Kahl Laborpressanlage Typ 14-175; Reinbek, Germany). Feed was administered ad libitum, and feed intake was recorded weekly. Experimental diets were fed for 4 weeks. Water was available ad libitum from nipple drinkers during the whole experiment.

[2] = Organ weights of the rats; assay type: in vivo; details: obese (fa/fa) Zucker rats, supplemented diet fed 4 wk, means ± SD (n = 12)
Protocol: (§3) All rats were kept individually in Macrolon cages in a room maintained at 22±1° C. and 50-60% relative humidity with lighting from 06.00 to 18.00 hours. All experimental procedures described followed established guidelines for the care and handling of laboratory animals and were approved by the local Animal Care and Use Committee.
(§4) Five different diets were used differing in their supplementation. […] Feed was administered ad libitum, and feed intake was recorded weekly. Experimental diets were fed for 4 weeks. Water was available ad libitum from nipple drinkers during the whole experiment.

[3] = Plasma and lipoprotein lipid concentrations (triacylglycerol, cholesterol; enzymatic kits); assay type: in vivo, Zucker rats; details: obese (fa/fa) Zucker rats, supplemented diet 4 wk, fasted, means ± SD (n = 12)
Protocol: as §1, §2
(§5) The rats were decapitated under CO2 anesthesia in the fasted state. Whole blood was collected into EDTA polyethylene tubes (Sarstedt, Nürnbrecht, Germany). Plasma was separated from whole blood by centrifugation (1,100×g; 10 min) at 4° C. Lipoproteins [VLDL, LDL and high-density lipoproteins (HDL)] were separated by step-wise ultracentrifugation (900,000×g, 1.5 h, 4° C.; Mikro-Ultrazentrifuge, Sorvall Products, Bad Homburg, Germany). All samples were stored at −20° C. pending analysis.
Triacylglycerol and cholesterol concentrations in plasma and lipoproteins were determined using enzymatic reagent kits from Biocon (Vöhl-Marienhagen, Germany).

[4] = Fasting glucose concentration in plasma; assay type: in vivo, Zucker rats; details: obese (fa/fa) Zucker rats, supplemented diet 4 wk, fasted, means ± SD (n = 12)
Protocol: as §1, §2, §5
Glucose concentration in plasma was determined by an enzymatic reagent kit from Analyticon Biotechnologies (Lichtenfels, Germany).

[5] = Non-esterified fatty acids (NEFA) in plasma; assay type: in vivo, Zucker rats; details: obese (fa/fa) Zucker rats, supplemented diet 4 wk, fasted, means ± SD (n = 12)
Protocol: as §1, §2, §5
NEFA concentrations in plasma were determined using the NEFA kit from Wako Chemicals (Neuss, Germany).

leptin = assay: Leptin in plasma (rat ELISA); assay type: in vivo, Zucker rats; details: obese (fa/fa) Zucker rats, supplemented diet 4 wk, fasted, means ± SD (n = 12)
Protocol: as §1, §2, §5
(§6) Concentrations of leptin in plasma was determined by rat ELISA kits from BioVendor (Heidelberg, Germany). Concentration of high molecular weight adiponectin was determined by a rat ELISA kit from Shibayagi (Ishihara, Shibukawa, Gunma, Japan).

[6] = system: high molecular weight adiponectin; assay: High molecular weight adiponectin in plasma (rat ELISA); assay type: in vivo; details: obese (fa/fa) Zucker rats, supplemented diet 4 wk, fasted, means ± SD (n = 12)
Protocol: as §1, §2, §5, §6

[7] = system: sterol regulatory element-binding protein (SREBP)-1c; assay: Relative mRNA concentration in liver, lipogenesis: SREBP-1c; assay type: in vivo, Zucker rats; details: liver of obese Zucker rats, diet 4 wk, obese control = 1.00, means ± SD (n = 12)
Protocol: as §3, §4

[8] = system: fatty acid synthase (FAS); assay: Relative mRNA concentration in liver, lipogenesis: FAS; assay type: in vivo, Zucker rats; details: liver of obese Zucker rats, diet 4 wk, obese control = 1.00, means ± SD (n = 12)
Protocol: as §3, §4

[9] = system: stearoyl-CoA desaturase (SCD); assay: Relative mRNA concentration in liver, lipogenesis: SCD; assay type: in vivo; details: liver of obese Zucker rats, diet 4 wk, obese control = 1.00, means ± SD (n = 12)
Protocol: as §3, §4

[10] = system: fatty acid binding protein (FABP); assay: Relative mRNA concentration in liver, fatty acid uptake: FABP; assay type: in vivo, Zucker rats; details: liver of obese Zucker rats, diet 4 wk, obese control = 1.00, means ± SD (n = 12)
Protocol: as §3, §4

[11] = system: fatty acid transport protein (FATP); assay: Relative mRNA concentration in liver, fatty acid uptake: FATP; assay type: in vivo; details: liver of obese Zucker rats, diet 4 wk, obese control = 1.00, means ± SD (n = 12)
Protocol: as §3, §4

scavenger receptor CD36 = assay: Relative mRNA concentration in liver, fatty acid uptake: CD36; assay type: in vivo; details: liver of obese Zucker rats, diet 4 wk, obese control = 1.00, means ± SD (n = 12)
Protocol: as §3, §4

lipoprotein lipase (LPL) = assay: Relative mRNA concentration in liver, fatty acid uptake: LPL; assay type: in vivo; details: liver of obese Zucker rats, diet 4 wk, obese control = 1.00, means ± SD (n = 12)
Protocol: as §3, §4

acyl-CoA oxidase (ACO) = assay: Relative mRNA concentration in liver, fatty acid oxidation: ACO; assay type: in vivo; details: liver of obese Zucker rats, diet 4 wk, obese control = 1.00, means ± SD (n = 12)
Protocol: as §3, §4

[12] = system: liver-type carnitine-palmitoyltransferase (L-CPT) I; assay: Relative mRNA concentration in liver, fatty acid oxidation: L-CPT I; assay type: in vivo; details: liver of obese Zucker rats, diet 4 wk, obese control = 1.00, means ± SD (n = 12)
Protocol: as §3, §4

## CC/C=C\C/C=C\C/C=C\C/C=C\C/C=C\C/C=C\CCC(=O)O [DHA, docosahexaenoic acid]
[1]
  Daily body weight gain: 5.14 ± 0.60 ^a g
  Feed conversion ratio: 5.01 ± 0.28 ^c g/g
  Feed intake: 25.7 ± 2.9 ^ab g/d
  Final body weight: 505 ± 34 ^a g
  Total body weight gain: 146 ± 17 ^a g
[2]
  Absolute organ weights: Heart: 1.36 ± 0.13 g
  Absolute organ weights: Kidney: 2.59 ± 0.38 g
  Absolute organ weights: Liver: 24.7 ± 3.7 ^a g
  Relative organ weights: Heart: 2.70 ± 0.21 ^b mg/g body weight
  Relative organ weights: Kidney: 5.16 ± 0.91 mg/g body weight
  Relative organ weights: Liver: 48.6 ± 4.9 ^a mg/g body weight
[3]
  Cholesterol, HDL: 4.51 ± 0.45 ^a mmol/L
  Cholesterol, Plasma: 8.30 ± 1.00 ^a mmol/L
  Cholesterol, VLDL + LDL: 3.62 ± 0.53 ^a mmol/L
  Triacylglycerols, Plasma: 4.73 ± 0.98 ^bc mmol/L
  Triacylglycerols, VLDL + LDL: 2.81 ± 0.52 ^b mmol/L
[4]
  Glucose in plasma: 7.99 ± 0.77 ^ab mmol/L
[5]
  NEFA in plasma: 2.42 ± 0.53 ^b mmol/L
leptin
  Leptin in plasma: 7.27 ± 1.09 ^a ng/mL
[6]
  Adiponectin in plasma: 120 ± 22 ng/mL
[7]
  Relative mRNA concentration, SREBP-1c: 0.81 ± 0.32 ^ab
[8]
  Relative mRNA concentration, FAS: 0.71 ± 0.55 ^ab
[9]
  Relative mRNA concentration, SCD: 1.01 ± 0.45 ^a
[10]
  Relative mRNA concentration, FABP: 0.99 ± 0.19 ^a
[11]
  Relative mRNA concentration, FATP: 1.07 ± 0.90
Scavenger receptor CD36
  Relative mRNA concentration, CD36: 0.91 ± 0.38 ^a
Lipoprotein lipase (LPL)
  Relative mRNA concentration, LPL: 1.26 ± 0.36
acyl-CoA oxidase (ACO)
  Relative mRNA concentration, ACO: 1.27 ± 0.35
[12]
  Relative mRNA concentration, L-CPT I: 1.31 ± 0.69
